Results from patent US20250277028A1, “TARGETING AGENT” (JIKSAK BIOENGINEERING, INC., priority 2022, published 2025).
Non-standard residues stand in square brackets, D forms with d. Residues, ends and D or L forms follow the SMILES beside them. *: point of attachment. Dolaproine = CO[C@@H]([C@@H]1CCCN1)[C@@H](C)C(=O)O; Dil = CC[C@H](C)[C@H](NC)[C@@H](CC(=O)O)OC; X1 = C[C@@H](N*)[C@@H](O)c1ccccc1; NMeV = CN[C@H](C(=O)O)C(C)C

System: human motor neurons
Assay: Pharmacological effect (axonal amount, Tuj1) of antibody-MMAE conjugate
Format: cell-based
Conditions: t-test, significance level p<0.05
Experimental: Experiments were performed using human motor neurons, for which synaptogenesis was induced using microbeads coated with the extracellular domain of LRRTM2. Culture of cells, preparation of LRRTM2 beads and induction of presynapse were performed as described in Example 1.
As the drug, a microtubule polymerization inhibitor monomethylauristatin E (MMAE: Cat. No. #HY-15575; MedChemExpress) was used. As the anti-SYT2 N-terminal antibody and the normal rabbit antibody for control, antibodies used in Example 1 were used. Conjugate of MMAE and the antibody was prepared using MagicLink™ kit (broadpharm). Preparation of conjugate was performed according to the manufacturer's protocols.
After warming the neuronal medium at 37° C. for 30 minutes, 4-aminopyridine (Sigma Aldrich) was added to the medium to have a final concentration of 100 μM and mixed. In addition, conjugate was added to have a final concentration of 1 μg/mL and mixed. […]
The axonal amount was obtained as the sum of the brightness (=(fluorescence intensity per pixel)×(pixel number)) of Tuj1 signals in the obtained fluorescence images. The relative amount of axon was calculated as the value normalized by the results obtained using the conjugate of the control normal rabbit antibody and MMAE set to 100%. […]

CC[C@H](C)[C@@H]([C@@H](CC(=O)N1CCC[C@H]1[C@H](OC)[C@@H](C)C(=O)N[C@H](C)[C@@H](O)c1ccccc1)OC)N(C)C(=O)[C@@H](NC(=O)[C@@H](NC)C(C)C)C(C)C [MMAE, monomethyl auristatin E] (H-[NMeV]V[Dil][Dolaproine]-X1)
axonal amount, difference from the control antibody group: no significant differences
